Numbers after ± are expanded uncertainties.
Assays:
[1] = Crystal; DTA
[2] = Molar enthalpy of transition or fusion; settings: Crystal; DSC

- Normal melting temperature [1]: 61.1 ± 0.4 °C
- Molar enthalpy of transition or fusion [2]: 5.41 ± 0.124 kcal/mol
SMILES: O=Cc1ccc(Br)cc1 [4-bromobenzaldehyde]

From the NIST ThermoML archive (doi:10.1021/je700448v)
